PubChem BioAssay (NCI)
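How tested: cells in 96-well plates exposed to compound for 48 hours at five concentrations. At the GI50, growth is halved. TGI: concentration producing complete growth inhibition.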

Legend:
Test in all cases: DTP human tumour cell line panel, 48 h
[1] = tested on: OVCAR-3 ovarian
[2] = tested on: NCI-H226 lung
[3] = tested on: UACC-257 melanoma
[4] = tested on: TK-10 renal
[5] = tested on: SK-MEL-5 melanoma
[6] = tested on: M19-MEL melanoma
[7] = tested on: DMS 114 small cell lung
[8] = tested on: NCI-H522 lung
[9] = tested on: HOP-62 NSCLC
[10] = tested on: HOP-18 NSCLC
[11] = tested on: EKVX NSCLC
[12] = tested on: LOX IMVI melanoma
[13] = tested on: CCRF-CEM leukemia
[14] = tested on: ACHN renal
[15] = tested on: OVCAR-5 ovarian
[16] = tested on: XF 498 CNS
[17] = tested on: SNB-75 CNS
[18] = tested on: A549 NSCLC
[19] = tested on: COLO 205 colon
[20] = tested on: HL-60(TB) leukemia
[21] = tested on: 786-0 renal
[22] = tested on: DLD-1 colon
[23] = tested on: NCI-H23 lung
[24] = tested on: SNB-19 CNS
[25] = tested on: U251 CNS
[26] = tested on: K-562 leukemia
[27] = tested on: KM20L2 colon
[28] = tested on: SNB-78 CNS
[29] = tested on: SK-OV-3 ovarian
[30] = tested on: SW-620 colon
[31] = tested on: M14 melanoma
[32] = tested on: SR leukemia
[33] = tested on: OVCAR-8 ovarian
[34] = tested on: LXFL 529 NSCLC
[35] = tested on: UO-31 renal
[36] = tested on: RXF-631 renal
[37] = tested on: HCT-15 colon
[38] = tested on: RPMI-8226 leukemia
[39] = tested on: HT29 colon
[40] = tested on: OVCAR-4 ovarian
[41] = tested on: MALME-3M melanoma
[42] = tested on: HCT-116 colon
[43] = tested on: KM12 colon
[44] = tested on: HCC-2998 colon
[45] = tested on: SK-MEL-2 melanoma
[46] = tested on: CAKI-1 renal
[47] = tested on: SF-539 CNS
[48] = tested on: SK-MEL-28 melanoma
[49] = tested on: IGROV1 ovarian
[50] = tested on: SF-268 CNS
[51] = tested on: MOLT-4 leukemia
[52] = tested on: SF-295 CNS
[53] = tested on: NCI-H460 lung
[54] = tested on: UACC-62 melanoma

Work on `CC[O-].CC[O-].CN(C)c1ccc([O-])cc1.CN(C)c1ccc([O-])cc1.[Ti+4]` yielded a GI50 [1] of 56.1 µM, a TGI [1] greater than 100 µM and a GI50 [2] greater than 100 µM. For the same compound, the TGI [2] was greater than 100 µM, the GI50 [3] was 28.7 µM and the TGI [3] was greater than 100 µM. It also gave a GI50 [4] greater than 100 µM, a TGI [4] greater than 100 µM and a GI50 [5] of 99.8 µM. The TGI [5] was greater than 100 µM, the GI50 [6] was 39.3 µM and the TGI [6] was greater than 100 µM. The GI50 [7] was 35 µM, the TGI [7] was greater than 100 µM and the GI50 [8] was 52.3 µM. The TGI [8] was greater than 100 µM, the GI50 [9] was greater than 100 µM and the TGI [9] was greater than 100 µM. For the same compound, the GI50 [10] was greater than 100 µM, the TGI [10] was greater than 100 µM and the GI50 [11] was greater than 100 µM. The TGI [11] was greater than 100 µM, the GI50 [12] was 38.6 µM and the TGI [12] was greater than 100 µM. It also gave a GI50 [13] of 36.4 µM, a TGI [13] greater than 100 µM and a GI50 [14] of 40.9 µM. The TGI [14] was greater than 100 µM, the GI50 [15] was greater than 100 µM and the TGI [15] was greater than 100 µM. It also gave a GI50 [16] greater than 100 µM, a TGI [16] greater than 100 µM and a GI50 [17] greater than 100 µM. For the same compound, the TGI [17] was greater than 100 µM, the GI50 [18] was 54.4 µM and the TGI [18] was greater than 100 µM. It also gave a GI50 [19] of 58.4 µM, a TGI [19] greater than 100 µM and a GI50 [20] of 46.4 µM. For the same compound, the TGI [20] was greater than 100 µM, the GI50 [21] was 32 µM and the TGI [21] was greater than 100 µM. For the same compound, the GI50 [22] was 61.4 µM, the TGI [22] was greater than 100 µM and the GI50 [23] was 70.6 µM. It also gave a TGI [23] greater than 100 µM, a GI50 [24] greater than 100 µM and a TGI [24] greater than 100 µM. For the same compound, the GI50 [25] was 39 µM, the TGI [25] was greater than 100 µM and the GI50 [26] was 29.1 µM. For the same compound, the TGI [26] was greater than 100 µM, the GI50 [27] was 61.7 µM and the TGI [27] was greater than 100 µM. For the same compound, the GI50 [28] was greater than 100 µM, the TGI [28] was greater than 100 µM and the GI50 [29] was greater than 100 µM. For the same compound, the TGI [29] was greater than 100 µM, the GI50 [30] was 70.5 µM and the TGI [30] was greater than 100 µM. For the same compound, the GI50 [31] was 98.4 µM, the TGI [31] was greater than 100 µM and the GI50 [32] was 72.2 µM. The TGI [32] was greater than 100 µM, the GI50 [33] was 36.8 µM and the TGI [33] was greater than 100 µM. For the same compound, the GI50 [34] was 68.2 µM, the TGI [34] was greater than 100 µM and the GI50 [35] was greater than 100 µM. It also gave a TGI [35] greater than 100 µM, a GI50 [36] of 66.1 µM and a TGI [36] greater than 100 µM. It also gave a GI50 [37] of 61.4 µM, a TGI [37] greater than 100 µM and a GI50 [38] of 95.7 µM. For the same compound, the TGI [38] was greater than 100 µM, the GI50 [39] was 21.3 µM and the TGI [39] was 49.5 µM. For the same compound, the GI50 [40] was greater than 100 µM, the TGI [40] was greater than 100 µM and the GI50 [41] was 82.9 µM. For the same compound, the TGI [41] was greater than 100 µM, the GI50 [42] was 52.5 µM and the TGI [42] was greater than 100 µM. For the same compound, the GI50 [43] was 29.3 µM, the TGI [43] was greater than 100 µM and the GI50 [44] was 53.6 µM. The TGI [44] was greater than 100 µM, the GI50 [45] was greater than 100 µM and the TGI [45] was greater than 100 µM. The GI50 [46] was greater than 100 µM, the TGI [46] was greater than 100 µM and the GI50 [47] was 30.8 µM. The TGI [47] was greater than 100 µM, the GI50 [48] was greater than 100 µM and the TGI [48] was greater than 100 µM. The GI50 [49] was greater than 100 µM, the TGI [49] was greater than 100 µM and the GI50 [50] was 36.4 µM. For the same compound, the TGI [50] was greater than 100 µM, the GI50 [51] was 32.4 µM and the TGI [51] was greater than 100 µM. It also gave a GI50 [52] of 48.7 µM, a TGI [52] greater than 100 µM and a GI50 [53] of 27.7 µM. For the same compound, the TGI [53] was 75 µM, the GI50 [54] was greater than 100 µM and the TGI [54] was greater than 100 µM.
